TGI and GI50 data for 11 molecules are collected here from PubChem BioAssay (NCI).

Several values for one entry are separate records, joined by “and”; a condition that tells them apart may be missing. Identical values can stand only once.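 Tested at 5 concentrations; 48 h exposure; 96-well plates; endpoints linearly interpolated, else capped at highest concentration. The concentration for 50% growth inhibition is given as GI50. TGI: total growth inhibition.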 A value given as a limit tells only on which side of the number the result lay.

Among the test systems are ACHN renal; 786-0 renal; A549 NSCLC; SN12C renal; PC-3 prostate; CCRF-CEM leukemia; SW-620 colon; TK-10 renal; HCT-116 colon; SK-OV-3 ovarian.
Experiment in all cases: inhibition of tumour cell growth, NCI panel, 48 h

As for `Cc1cc(N)c2ccccc2[n+]1CCCCCCCCCC[n+]1c(C)cc(N)c2ccccc21`, the TGI with ACHN renal is > 50 µM and 7.15 µM and 17.9 µM; with 786-0 renal it was 10.9 µM and 21.3 µM and 25.5 µM; with A549 NSCLC it was 6.88 µM and 50 µM; in the test with SN12C renal, > 14 µM and 7.39 µM and 16.7 µM; in the test on PC-3 prostate, 4.63 µM and 15.8 µM and 11.1 µM; in the test with CCRF-CEM leukemia it was 3.53 µM and 16.2 µM and 6.15 µM. Also, the TGI is > 50 µM and 33.9 µM and > 100 µM with SW-620 colon; 7.63 µM and 15.5 µM and 24.3 µM in the test on TK-10 renal. Moreover, the GI50 in the test with 786-0 renal was 0.512 µM and 3.75 µM; in the test on A549 NSCLC, 0.116 µM; with SN12C renal, 0.159 µM; in the test with PC-3 prostate, 0.245 µM and 0.744 µM; with CCRF-CEM leukemia, 0.635 µM and 1.3 µM; in the test on SW-620 colon, 0.508 µM. The GI50 with TK-10 renal was 0.684 µM and 3.13 µM; in the test with HCT-116 colon, 0.28 µM and 2 µM.
Regarding `COC(=O)C1=C(O)C(C(=O)OC)[C@@]2(O)[C@@H](C(=O)OC)C(c3ccc(OC(=O)C(CC(C)C)NC(C)=O)cc3)C[C@@H]1[C@@H]2C(=O)OC` (some centres not stated), the GI50 in the test with ACHN renal is 41.9 µM; in the test with 786-0 renal, 46.2 µM; in the test on A549 NSCLC it was 38.3 µM; in the test with SN12C renal it was 30.2 µM; with PC-3 prostate, 33.9 µM; in the test on CCRF-CEM leukemia, 41.4 µM. The GI50 is 55.5 µM with SW-620 colon, 57.4 µM in the test with TK-10 renal and 29.3 µM in the test with HCT-116 colon. Moreover, the TGI with ACHN renal, with 786-0 renal, in the test with A549 NSCLC, with SN12C renal, in the test on PC-3 prostate and with CCRF-CEM leukemia was over 100 µM each time. Moreover, the TGI with SW-620 colon, with TK-10 renal and in the test on HCT-116 colon was over 100 µM each time.
For `CCCCCCCCCCCCCCCCCC1=NC(C)(C)CN1CCO`, the GI50 in the test on ACHN renal was 1.58 µM; with 786-0 renal, 1.73 µM; in the test with SN12C renal it was 1.61 µM; with SK-OV-3 ovarian, 1.72 µM; in the test with PC-3 prostate, 1.63 µM; in the test with CCRF-CEM leukemia, 1.92 µM. Moreover, the figures for the GI50 in the test with SW-620 colon, with TK-10 renal and with HCT-116 colon were 1.75 µM, 1.73 µM and 1.63 µM, respectively. The TGI came out at 2.99 µM in the test with ACHN renal; 3.2 µM in the test with 786-0 renal; 3.61 µM in the test on SN12C renal; 3.16 µM with SK-OV-3 ovarian; 4.43 µM in the test with PC-3 prostate; 5.05 µM in the test on CCRF-CEM leukemia. In addition, the TGI amounted to 3.21 µM in the test with SW-620 colon, 3.31 µM in the test with TK-10 renal and 3.19 µM in the test on HCT-116 colon.
With `O=C1c2cccc3cccc(c23)C(=O)N1CCCN1CCN(CCCN2C(=O)c3cccc4cccc(c34)C2=O)CC1`, the TGI with ACHN renal, in the test on 786-0 renal, with A549 NSCLC, in the test with SN12C renal, in the test with SK-OV-3 ovarian and with CCRF-CEM leukemia was over 100 µM in each case. Besides, the TGI in the test with SW-620 colon, with TK-10 renal and in the test with HCT-116 colon was over 100 µM each time.
Consider `COc1cc(CC(=O)c2ccc3c(c2)OCO3)cc(OC)c1OC`, for which the TGI in the test on ACHN renal, in the test on 786-0 renal, with A549 NSCLC, in the test on SN12C renal, with SK-OV-3 ovarian and in the test on CCRF-CEM leukemia was over 100 µM throughout. Moreover, the TGI was 46.3 µM with SW-620 colon, over 100 µM in the test on TK-10 renal and over 100 µM in the test with HCT-116 colon.
`COC(=O)C1CCC(=NC2c3ccccc3-c3ccccc32)N1` (configuration not stated): the TGI in the test with ACHN renal, in the test on 786-0 renal, in the test on A549 NSCLC, in the test on SN12C renal, with SK-OV-3 ovarian and with CCRF-CEM leukemia was over 100 µM each time. For the same molecule, the TGI in the test on SW-620 colon, in the test with TK-10 renal and with HCT-116 colon was over 100 µM in each case.
Take `O=C(OCc1nc2ccc(Br)cc2c(=O)n1-c1ccccc1)c1ccccc1O`: the TGI with ACHN renal, with 786-0 renal, in the test on A549 NSCLC, in the test on SN12C renal, in the test with SK-OV-3 ovarian and with CCRF-CEM leukemia was over 100 µM throughout. Further, the TGI in the test on SW-620 colon, in the test on TK-10 renal and in the test on HCT-116 colon was over 100 µM in each case.
Take `Cc1[nH]c(=O)nc(N/N=C/c2ccc(O)cc2)c1C(=O)Nc1ccc(Cl)cc1`: the TGI in the test with ACHN renal, in the test with 786-0 renal, in the test with A549 NSCLC, in the test with SN12C renal, with SK-OV-3 ovarian and with CCRF-CEM leukemia was over 100 µM each time. Also, the TGI in the test with SW-620 colon, in the test with TK-10 renal and in the test with HCT-116 colon was over 100 µM throughout.
Turning to `CCOc1cccnc1/C=N/NC(N)=S`, the GI50 with ACHN renal was 4.01 µM; in the test on 786-0 renal, 3.66 µM; in the test on A549 NSCLC, 3.34 µM; in the test on SN12C renal it was 3.5 µM; in the test with SK-OV-3 ovarian, 5.01 µM; in the test on PC-3 prostate, 3.9 µM. The values for the GI50 in the test on CCRF-CEM leukemia, with SW-620 colon and in the test on HCT-116 colon were 3 µM, 4.46 µM and 4.26 µM, respectively. The TGI with ACHN renal, in the test on 786-0 renal, in the test on A549 NSCLC, in the test with SN12C renal, with SK-OV-3 ovarian and with PC-3 prostate was over 100 µM throughout. Further, the TGI in the test with CCRF-CEM leukemia was 12 µM; with SW-620 colon it was over 100 µM; with HCT-116 colon, over 100 µM.
Regarding `CCOC(=O)C1=C(c2ccccc2)N(Cc2ccccc2)C2(O)C=CC(=O)C3C(=O)N(c4ccccc4)C(=O)C132` (configuration not stated), the GI50 in the test with ACHN renal was 1.9 µM; in the test on 786-0 renal, 2.11 µM; in the test with A549 NSCLC, 2.96 µM; with SN12C renal it was 1.55 µM; in the test with SK-OV-3 ovarian, 3.29 µM; in the test with PC-3 prostate, 2.67 µM. The GI50 is 1.53 µM with CCRF-CEM leukemia, 1.81 µM in the test on SW-620 colon and 2.71 µM in the test on TK-10 renal. The TGI in the test with ACHN renal was found to be 4.23 µM; with 786-0 renal, 5.34 µM; with A549 NSCLC, 11.4 µM; in the test with SN12C renal, 4.9 µM; with SK-OV-3 ovarian it was 10.7 µM; with PC-3 prostate, 9.32 µM. For the same molecule, the TGI is 7.03 µM in the test with CCRF-CEM leukemia, 3.91 µM in the test with SW-620 colon and 7.24 µM in the test with TK-10 renal.
Regarding `CCOC(=O)NNC(=O)NC12CC3CC(CC(C3)C1)C2`, the TGI in the test with ACHN renal, in the test with 786-0 renal, with A549 NSCLC, in the test on SN12C renal, in the test with SK-OV-3 ovarian and in the test on CCRF-CEM leukemia was over 100 µM throughout. The TGI with SW-620 colon, with TK-10 renal and with HCT-116 colon was over 100 µM each time.
